Data on 21 molecules can be found in patent publication US12152030B2 (NOVOSTAR PHARMACEUTICALS, LTD., priority 2019, dated 2024).

Structures can show the parent of a compound that is named as a salt. Where only a bound is given, the exact number is not on record here.

Experiment [1] has as its system Phosphorylated eIF4E. The experiment in a line: Intracellular peIF4E signaling assay. Format: cell-based. The settings on record: 2 h; two hours incubation at 37° C.; read-out: peIF4E signaling cell assay IC50. Here is the method: Phosphorylated eIF4E was determined using CisBio peIF4E assay kit (CisBio, catalog number 64EF4PEG). The cells were plated in a 96-well cell culture plate in a volume of 90 μL, and the number of cells per well was 5*10^4. The compounds (10×) were subjected to 3-fold serial dilution, added to the cell plate in a volume of 10 μL with the final DMSO concentration being 1%, and incubated at 37° C. for two hours. The cell plate was centrifuged at 300 g for 5 minutes, and the cell supernatant was carefully removed. The cell plate was immediately added with 50 μL of cell lysis buffer […] and incubated at 25° C. with shaking for at least 30 minutes. After homogenization by pipetting, 16 μL of cell lysate was transferred from the 96-well cell culture plate to a 384-well small-volume microwell plate. According to the kit instruction, an antibody mixture solution was prepared with a detection buffer, and was added in a volume of 4 μL to the 384-well small-volume microwell plate containing the cell lysate. The plate was covered with a plate sealer, incubated overnight at 25° C., and was read for fluorescence emission at two different wavelengths (665 nm and 615 nm) on the EnVision microplate reader counter. The emission ratio was imported into a GraphPadPrism software to fit the compound concentration (IC50) required for 50% inhibition of enzyme activity.
In this respect, IC50 values which are less than 0.05 μM were marked as “+++”, which are from 0.05 to 1.0 μM were marked as “++”, and which are greater than 1.0 and up to 100 μM were marked as “+”, and NA meant “not detected”.

Experiment [2] concerns the target MNK1 (Homo sapiens, UniProt Q9BUB5). The experiment in a line: MNK biological enzyme assay (HTRF kinase assay), MNK1. It counts as biochemical. On the set-up: purchased ThermoFisher PV6023. Conditions: 3 ng/ul MNK1, 1 μM STK1 peptide, 100 μM ATP. Here is the method: (§1) A HTRF kinase assay kit (Cisbio, catalog number 62ST1PEB) was used to determine the MNK inhibitory activity of the compounds. All kinase reactions were performed in the reaction buffer (provided in the kit). The final MNK1 reaction involved 3 ng/ul recombinant MNK1 (ThermoFisher, PV6023), 1 μM MNK substrate peptide STK1 (provided in the kit), 100 μM ATP, and different concentrations of the inhibitory compounds of interest. The final MNK2 reaction involved 1 ng/μl recombinant MNK2 (ThermoFisher, PV5607), 1 μM MNK substrate peptide STK1 (provided in the kit), 100 μM ATP, and different concentrations of the inhibitory compounds of interest. The final DMSO concentration in each of the reactions was 1%.
(§2) The kinase reaction was performed in a final volume of 10 μl in a 384-well white flat-bottomed polystyrene plate. The MNK1/2 enzyme was pre-incubated with the compound and substrate peptide for 5 minutes, and then ATP was added thereto. After addition of ATP, the kinase reaction was incubated at 25° C. for 120 minutes or 60 minutes. The reaction was subsequently terminated by adding 5 μl of EU3+ substrate antibody detection reagent and 5 μl of XL665 detection reagent, and incubating for another 60 minutes. The luminescent signal was detected with an EnVision microplate reader counter (Perkin Elmer), and the signal from 10-point dilution series of the compounds was used to calculate the compound concentration (IC50) required to achieve 50% inhibition of enzyme activity.
(§3) In this respect, IC50 values which are less than 0.01 μM were marked as “+++”, which are from 0.01 to 0.1 μM were marked as “++”, and which are greater than 0.1 and up to 10.0 μM were marked as “+”, and NA meant “not detected”.
In general terms: Time-resolved FRET reads energy transfer from a long-lived donor to a nearby acceptor.

Experiment [3] deals with MNK2 (Homo sapiens, UniProt Q9HBH9). The experiment in a line: MNK biological enzyme assay (HTRF kinase assay), MNK2. It counts as biochemical. Also on record: purchased ThermoFisher PV5607. Conditions: 1 ng/μl MNK2, 1 μM STK1 peptide, 100 μM ATP. Here is the method:
as §1, §2, §3

Chain of MNK2 (Q9HBH9 whole entry): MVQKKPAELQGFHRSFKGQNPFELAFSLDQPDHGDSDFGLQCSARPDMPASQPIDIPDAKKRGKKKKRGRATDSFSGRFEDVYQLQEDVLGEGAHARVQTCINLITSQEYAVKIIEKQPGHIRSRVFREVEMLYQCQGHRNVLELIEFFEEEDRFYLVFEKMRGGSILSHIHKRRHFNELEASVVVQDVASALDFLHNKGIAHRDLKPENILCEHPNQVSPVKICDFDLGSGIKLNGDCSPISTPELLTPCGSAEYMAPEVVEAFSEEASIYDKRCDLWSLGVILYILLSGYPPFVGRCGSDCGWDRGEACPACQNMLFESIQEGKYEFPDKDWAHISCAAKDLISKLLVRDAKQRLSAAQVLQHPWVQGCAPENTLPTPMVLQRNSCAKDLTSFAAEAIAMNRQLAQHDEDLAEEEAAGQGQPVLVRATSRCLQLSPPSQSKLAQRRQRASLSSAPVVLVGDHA
Chain of MNK1 (Q9BUB5 whole entry): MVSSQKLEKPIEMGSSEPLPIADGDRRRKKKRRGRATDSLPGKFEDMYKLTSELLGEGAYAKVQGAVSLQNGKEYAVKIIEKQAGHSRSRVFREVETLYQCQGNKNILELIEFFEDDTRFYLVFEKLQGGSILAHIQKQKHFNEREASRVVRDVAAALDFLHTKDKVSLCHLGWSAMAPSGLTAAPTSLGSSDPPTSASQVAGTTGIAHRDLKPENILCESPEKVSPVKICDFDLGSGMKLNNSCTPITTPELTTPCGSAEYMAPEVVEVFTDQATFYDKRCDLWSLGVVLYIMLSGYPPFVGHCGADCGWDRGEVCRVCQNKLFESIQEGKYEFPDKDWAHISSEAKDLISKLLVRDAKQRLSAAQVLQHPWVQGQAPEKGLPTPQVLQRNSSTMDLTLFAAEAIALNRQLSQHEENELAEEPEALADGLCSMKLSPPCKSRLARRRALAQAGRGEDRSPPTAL

On to `Cc1c2n(c(=O)c3[nH]c4cc(N)ncc4c(=O)c13)C1(CCCCC1)NC2=O` [Compound 1, 8′-amino-12′-methyl-2′H-spiro[cyclohexane-1,3′-imidazo[1′,5′:1,6]pyrido[3,4-b][1,6]naphthyridine]-1′,5′,11′(6′H)-trione], for which the IC50 in experiment [1] was below 50 nM; in experiment [2], 10 to 100 nM; in experiment [3], 10 to 100 nM.
As to `Cc1c2n(c(=O)c3[nH]c4cc(N)ncc4c(=O)c13)C1(CCN(C)CC1)NC2=O` [Compound 17, 8-amino-1′,12-dimethyl-2H-spiro[imidazo[1′,5′:1,6]pyrido[3,4-B][1,6]naphthyridine-3,4′-piperidine]-1,5,11(6H)-trione], the IC50 in experiment [1] was 1000 to 100000 nM.
`Cl.[2H]C1([2H])c2cnc(N)cc2Nc2c1c(C)c1n(c2=O)C2(CCCCC2)NC1=O` [Compound 20, 8′-amino-12′-methyl-6′,11′-dihydro-2′H-spiro[cyclohexane-1,3′-imidazo[1′,5′:1,6]pyrido[3,4-b][1,6]naphthyridine]-1′,5′-dione-11′,11′-d2 hydrochloride]: the IC50 in experiment [1] was below 50 nM; in experiment [2], 10 to 100 nM; in experiment [3], below 10 nM.
On to `Cc1c2n(c(=O)c3[nH]c4cc(N)ncc4c(=O)c13)C(C)(c1cccc(F)c1)NC2=O` (centres unmarked) [Compound 9, 8-amino-3-(3-fluorophenyl)-3,12-dimethyl-2,3-dihydroimidazo[1′,5′:1,6]pyrido[3,4-b][1,6]naphthopyridin-1,5,11(6H)-trione], for which the figures for the half-maximal inhibitory concentration (IC50) in experiment [1] and in experiment [2] were 50 to 1000 nM and 10 to 100 nM, respectively.
For `Cc1c2c(c(=O)n3c1C(=O)NC3(C)C)Nc1cc(N)ncc1C2` [Compound 4, 8-amino-3,3,12-trimethyl-2,3,6,11-tetrahydroimidazo[1,5′:1.6]pyrido[3,4-b][1,6]naphthyridine derivative-1,5-dione hydrochloride], the figures for the IC50 in experiment [1], in experiment [2] and in experiment [3] were 50 to 1000 nM, 10 to 100 nM and 10 to 100 nM, respectively.
For the molecule `Cc1c2n(c(=O)c3[nH]c4cc(N)ncc4c(=O)c13)C(C)(c1cccc(Cl)c1)NC2=O` (centres unmarked) [Compound 13, 8-amino-3-(3-chlorophenyl)-3,12-dimethyl-2,3-dihydroimidazole[1′,5′:1,6]pyrido[3,4-b][1,6]naphthopyridin-1,5,11(6H)-trione], the IC50 in experiment [1] lay in the range of 50 to 1000 nM; in experiment [2], 10 to 100 nM; in experiment [3], 10 to 100 nM.
In the case of `CCC(=O)Nc1cc2c(cn1)Cc1c(C)c3n(c(=O)c1N2)C1(CCCCC1)NC3=O` [Compound 25], the IC50 in experiment [1] is below 50 nM; in experiment [2] it was 10 to 100 nM; in experiment [3] it was below 10 nM.
The matching figures for `Cc1c2c(c(=O)n3c1C(=O)NC31CCCCC1)Nc1cc(NC(=O)C(C)C)ncc1C2` [Compound 24, N-(12methyl-1,5-dioxo-1,5,6,11-tetrahydro-2H-spiro[cyclohexane-1,3-imidazole[1,5:1,6]pyrido[3,4b][1,6]naphthyridine]-8-yl)isobutyramide]: below 50 nM, below 10 nM and below 10 nM.
The corresponding values for `Cc1c2n(c(=O)c3[nH]c4cc(N)ncc4c(=O)c13)C(C)(C)NC2=O` [Compound 3] are 50 to 1000 nM, 10 to 100 nM and 10 to 100 nM.
Consider `Cc1c2c(c(=O)n3c1C(=O)NC3(C)c1ccccc1)Nc1cc(N)ncc1C2` (centres unmarked) [Compound 8, 8-amino-3,12-dimethyl-3-phenyl-2,3,6,11-tetrahydroimidazo[l′,5′:1,6]pyrido[3,4-b][1,6]naphthyridine-1,5-dione, hydrochloride], for which the results for the IC50 in experiment [1] and in experiment [2] were 50 to 1000 nM and 10 to 100 nM, respectively.
Take `Cc1c2c(c(=O)n3c1C(=O)NC31CCCCC1)Nc1cc(NC(=O)OC(C)(C)C)ncc1C2` [Compound 23, Tert-Butyl (12-methyl-1,5-dioxo-1,5,6,11-tetrahydro-2H-spiro[cyclohexane-1,3-imidazole[1,5:1,6]pyrido[3,4b][1,6]naphthalene]-8-yl)aminoformate]: the half-inhibitory concentration (IC50) in experiment [1] was below 50 nM; in experiment [2], below 10 nM; in experiment [3], below 10 nM.
For the molecule `Cc1c2c(c(=O)n3c1C(=O)NC31CCCCC1)Nc1cc(NC(=O)C3CCC3)ncc1C2` [Compound 27], the IC50 in experiment [1] is below 50 nM; in experiment [2], 10 to 100 nM; in experiment [3], below 10 nM.
On to `Cc1c2c(c(=O)n3c1C(=O)NC31CCCC1)Nc1cc(N)ncc1C2` [Compound 6, 8′-amino-12′-methyl-6′,11′-dihydro-2′H-spiro[cyclopentane-1,3′-imidazo[1′,5′:1,6]pyrido[3,4-b][1,6]naphthyridine]-1′,5′-dione], for which the 50% inhibitory concentration (IC50) was below 50 nM in experiment [1], 10 to 100 nM in experiment [2] and below 10 nM in experiment [3].
On to `Cc1cc2c(cn1)Cc1c(C)c3n(c(=O)c1N2)C1(CCCCC1)NC3=O` [Compound 12, 8,12-dimethyl-6,11-dihydro-1H-spiro[cyclohexane-1,3-imidazo[1,5:1,6]pyrido[3,4-b][1,6]naphthyridine]-1,5(2H)-dione hydrochloride], for which the IC50 in experiment [1] was 50 to 1000 nM.
For the molecule `Cc1cc2[nH]c3c(=O)n4c(c(C)c3c(=O)c2cn1)C(=O)NC41CCCCC1` [Compound 11, 8′,12′-dimethyl-1′H-spiro[cyclohexane-1,3′-imidazo[1′,5′:1,6]pyrido[3,4-b][1,6]naphthyridine]-1′,5′,11′(2′H,6′H)-trione], the IC50 in experiment [1] lay within 1000 to 100000 nM.
Still for that read-out and setting: next, `C=CC1(CCO)NC(=O)c2c(C)c3c(=O)c4cnc(N)cc4[nH]c3c(=O)n21` (centres unmarked) [Compound 19, 8-amino-3-(2-hydroxyethyl)-12-methyl-3-ethenyl-2,3-dihydroimidazo[1′,5′:1,6]pyrido[3,4-b][1,6]naphthyridine-1,5,11(6H)-trione]: 1000 to 100000 nM; `Cc1c2n(c(=O)c3[nH]c4ccncc4c(=O)c13)C1(CCCCC1)NC2=O` [Compound 15, 12′-methyl-1′H-spiro[cyclohexane-1,3′-imidazo[1′,5′:1,6]pyrido[3,4-b][1,6]naphthyridine]-1′,5′,11′(2′H,6′H)-trione]: 50 to 1000 nM.
Turning to `Cc1c2c(c(=O)n3c1C(=O)NC31CCN(C)CC1)Nc1cc(N)ncc1C2` [Compound 18, 8-amino-1′,12-dimethyl-6,11-dihydro-2H-spiro[imidazo[1′,5′:1,6]pyrido[3,4-b][1,6]naphthyridine-3,4′-piperidine]-1,5-dione], the IC50 in experiment [1] fell in the range of 50 to 1000 nM.
In the case of `Cc1c2c(c(=O)n3c1C(=O)NC31CCCCC1)Nc1ccncc1C2` [Compound 16, 12-methyl-6,11-dihydro-1H-spiro[cyclohexane-1,3-imidazo[1,5:1,6]pyrido[3,4-b][1,6]naphthyridine]-1,5(2H)-dione hydrochloride], the results for the half-inhibitory concentration (IC50) in experiment [1], in experiment [2] and in experiment [3] were below 50 nM, 10 to 100 nM and below 10 nM, respectively.
For the molecule `Cc1c2c(c(=O)n3c1C(=O)NC3(C)c1cccc(Cl)c1)Nc1cc(N)ncc1C2` (centres unmarked) [Compound 14, 8-amino-3-(3-chlorophenyl)-3,12-dimethyl-2,3,6,11-tetrahydroimidazole[1′,5′:1,6]pyrido[3,4-b][1,6]naphthyridine-1,5-dione hydrochloride], in experiment [1], the IC50 was in the range of 50 to 1000 nM.
For the molecule `Cc1c2n(c(=O)c3[nH]c4cc(N)ncc4c(=O)c13)C(C)(c1ccccc1)NC2=O` (centres unmarked) [Compound 7, 8-amino-3,12-dimethyl-3-phenyl-2,3-dihydroimidazo[1′,5′:1,6]pyrido[3,4-B][1,6]naphthyridine-1,5,11(6H)-trione], the IC50 in experiment [1] was in the range of 1000 to 100000 nM; in experiment [2], 10 to 100 nM; in experiment [3] it was 10 to 100 nM.

One may read the IC50 as the concentration that inhibits the measured activity by half.
